Measurements published in US20230159445A1, “STAT INHIBITORY COMPOUNDS AND COMPOSITIONS” (JANPIX LIMITED, priority 2020, published 2023).

Tests used:
[1] = system: normal human fibroblast (NHF) cells; test: NHF Cell Cytotoxicity Assay (CellTiter-Blue, 72 h), off-target effects; format: cell-based; conditions: Homo sapiens, Fibroblast; pooled NHF cells
Procedure, shortened: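 Normal human fibroblasts (1×10^4/well, 10% FBS medium) were treated after 24 h with inhibitor at 0.097656-50 μM for 72 h at 37° C. Viability was read by CellTiter-Blue fluorescence (560/590 nm), normalized to DMSO control, and IC50 obtained from a variable-slope log(inhibitor)-response fit of four replicates.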

glutathione (GSH) = test: Reactivity Profiling with Glutathione (GSH), half-life by HPLC; conditions: 5 mM glutathione (GSH) in IMDM with 10% FBS
Protocol: 3.5 μL of 5 mM stocking solution of the inhibitors in DMSO was added to 697.5 μL of Iscove's Modified Dulbecco's Medium (IMDM) supplemented with 10% FBS and antibiotic antimycotic solution, with 5 mM glutathione to afford a final concentration of 25 μM inhibitor with 0.5% DMSO. The solution was then immediately placed in the sample tray at 25° C. […] For each inhibitor, its peak is integrated at different time points and compared to the time zero injection in order to obtain a percentage remaining. Half-life is calculated according to a first order reaction kinetic taking into account those time points for which remaining percentage of inhibitor is above 40%, using the formula: t½=Ln(2)/k, where k is the slope of the linear plot of Ln[Inhibitor] vs time, according to the formula: Ln[A]=Ln[A]0−kt, where [A] is the value resulting from the integration at each time point, [A]0 the value at time zero, and t the time. For each inhibitor, both replicates are averaged and the resulting t½ reported.

MV4-11 cells = test: MV4-11 Cell Cytotoxicity Assay (CellTiter-Blue, 72 h); format: cell-based, human; conditions: Homo sapiens, MV4-11; MV-4-11 cells
Procedure, shortened: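 Cells seeded 24 h before treatment, then exposed 72 h at 37° C, 5% CO2 to inhibitors in triplicate, top concentration 50 μM with 1:2 serial dilutions (0.5% DMSO vehicle). Viability read by CellTiter-Blue fluorescence at 560/590 nm after 1 h.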

| SMILES | IC50 [1] [µM] | half-life at 25 μM (glutathione (GSH)) [min] | IC50 (MV4-11 cells) [nM] |
| --- | --- | --- | --- |
| Cc1cc(C(=O)O)ccc1N(Cc1cc(C2CC2)cc(C2CC2)c1)C(=O)CN(Cc1ccccc1C(F)(F)F)S(=O)(=O)c1c(F)c(F)c(F)c(F)c1F [Compound 1217, 4-(N-(3,5-dicyclopropylbenzyl)-2-(N-(2-(trifluoromethyl)benzyl)-(2,3,4,5,6-pentafluoro-phenyl)sulfonamido)acetamido)-3-methylbenzoic acid] | 20 to 30 | 247 to 554 | 0.01 to 316 |
| Cc1cc(C(=O)O)ccc1N(Cc1cc(C2CC2)cc(C2CC2)c1)C(=O)CN(Cc1c(F)cc(F)cc1F)S(=O)(=O)c1c(F)c(F)c(F)c(F)c1F [Compound 1218, 4-(N-(3,5-dicyclopropylbenzyl)-2-(N-(2,4,6-trifluorobenzyl)-(2,3,4,5,6-pentafluoro-phenyl)sulfonamido)acetamido)-3-methylbenzoic acid] | 0.001 to 10 | 0.1 to 142 | 0.01 to 316 |
| Cc1cc(C(=O)O)ccc1N(Cc1cc(C2CC2)cc(C2CC2)c1)C(=O)CN(Cc1ccc(F)cc1Cl)S(=O)(=O)c1c(F)c(F)c(F)c(F)c1F [Compound 1219, 4-(2-(N-(2-chloro-4-fluorobenzyl)-(2,3,4,5,6-pentafluorophenyl)sulfon-amido)-N-(3,5-dicyclopropylbenzyl)acetamido)-3-methylbenzoic acid] | 0.001 to 10 | 142 to 247 | 0.01 to 316 |
| O=C(O)c1ccc(N(Cc2cc(C3CC3)cc(C3CC3)c2)C(=O)CN(Cc2ccc(F)cc2Cl)S(=O)(=O)c2c(F)c(F)c(F)c(F)c2F)c(OC2CCOC2)c1 (stereo not drawn) [Compound 1220, 4-(2-(N-(2-chloro-4-fluorobenzyl)-(2,3,4,5,6-pentafluorophenyl)sulfon-amido)-N-(3,5-dicyclopropylbenzyl)acetamido)-3-((tetrahydrofuran-3-yl)oxy)benzoic acid] | 0.001 to 10 | 142 to 247 | 0.01 to 316 |
| O=C(O)c1ccc(N(Cc2cc(C3CC3)cc(C(F)(F)F)c2)C(=O)CN(Cc2ccccc2C(F)(F)F)S(=O)(=O)c2c(F)c(F)c(F)c(F)c2F)c(OC2CC2)c1 [Compound 1221, 3-cyclopropoxy-4-(N-(3-cyclopropyl-5-(trifluoromethyl)benzyl)-2-(N-(2-(trifluoromethyl)benzyl)-(2,3,4,5,6-pentafluoro-phenyl)sulfonamido)acetamido)benzoic acid] | 20 to 30 | 554 to 100000 | 316 to 1000 |
| O=C(O)c1ccc(N(Cc2cc(C3CC3)cc(C(F)(F)F)c2)C(=O)CN(Cc2ccc(F)cc2Cl)S(=O)(=O)c2c(F)c(F)c(F)c(F)c2F)c(OC2CC2)c1 [Compound 1222, 4-(2-(N-(2-chloro-4-fluorobenzyl)-(2,3,4,5,6-pentafluorophenyl)sulfon-amido)-N-(3-cyclopropyl-5-(trifluoromethyl)benzyl)acetamido)-3-cyclopropoxybenzoic acid] | 10 to 20 | 247 to 554 | 0.01 to 316 |
| CC(C)(C)c1cc(CN(C(=O)CN(Cc2ccc(F)cc2Cl)S(=O)(=O)c2c(F)c(F)c(F)c(F)c2F)c2ccc(C(=O)O)cc2OC2CCOC2)cc(C2CC2)c1 (stereo not drawn) [Compound 1226, 4-(N-(3-(tert-butyl)-5-cyclopropylbenzyl)-2-(N-(2-chloro-4-fluorobenzyl)-(2,3,4,5,6-pentafluorophenyl)sulfon-amido)acetamido)-3-((tetrahydrofuran-3-yl)oxy)benzoic acid] | 0.001 to 10 | 142 to 247 | 0.01 to 316 |
| CCOc1cc(C(=O)O)ccc1N(Cc1cc(C2CC2)cc(C(C)(C)C)c1)C(=O)CN(Cc1ccc(F)cc1Cl)S(=O)(=O)c1c(F)c(F)c(F)c(F)c1F [Compound 1227, 4-(N-(3-(tert-butyl)-5-cyclopropylbenzyl)-2-(N-(2-chloro-4-fluorobenzyl)-(2,3,4,5,6-pentafluorophenyl)sulfon-amido)acetamido)-3-ethoxybenzoic acid] | 10 to 20 | 247 to 554 | 0.01 to 316 |
| CC(C)Oc1cc(C(=O)O)ccc1N(Cc1cc(C2CC2)cc(C(C)(C)C)c1)C(=O)CN(Cc1ccc(F)cc1Cl)S(=O)(=O)c1c(F)c(F)c(F)c(F)c1F [Compound 1228, 4-(N-(3-(tert-butyl)-5-cyclopropylbenzyl)-2-(N-(2-chloro-4-fluorobenzyl)-(2,3,4,5,6-pentafluorophenyl)sulfon-amido)acetamido)-3-isopropoxybenzoic acid] | 20 to 30 | 554 to 100000 | 0.01 to 316 |
| O=C(O)c1ccc(N(Cc2cc(C3CC3)cc(C3CC3)c2)C(=O)CN(Cc2ccc(F)cc2Cl)S(=O)(=O)c2c(F)c(F)c(F)c(F)c2F)c(OC(F)(F)F)c1 [Compound 1231, 4-(2-(N-(2-chloro-4-fluorobenzyl)-(2,3,4,5,6-pentafluorophenyl)sulfon-amido)-N-(3,5-dicyclopropylbenzyl)acetamido)-3-(trifluoromethoxy) benzoic acid] | 10 to 20 | 247 to 554 | 0.01 to 316 |
| CC(C)Oc1cc(CN(C(=O)CN(Cc2ccc(F)cc2Cl)S(=O)(=O)c2c(F)c(F)c(F)c(F)c2F)c2ccc(C(=O)O)cc2OC2CC2)cc(C2CC2)c1 [Compound 1232, 4-(2-(N-(2-chloro-4-fluorobenzyl)-(2,3,4,5,6-pentafluorophenyl)sulfon-amido)-N-(3-cyclopropyl-5-isopropoxybenzyl)acetamido)-3-cyclopropoxybenzoic acid] | 10 to 20 | 247 to 554 | 0.01 to 316 |
| CC(C)(C)c1cc(CN(C(=O)CN(Cc2c(F)cccc2Cl)S(=O)(=O)c2c(F)c(F)c(F)c(F)c2F)c2ccc(C(=O)O)cc2OC2CC2)cc(C2CC2)c1 [Compound 1238, 4-(N-(3-(tert-butyl)-5-cyclopropylbenzyl)-2-(N-(2-chloro-6-fluorobenzyl)-(2,3,4,5,6-pentafluorophenyl)sulfon-amido)acetamido)-3-cyclopropoxybenzoic acid] | 10 to 20 | 554 to 100000 | 0.01 to 316 |
| O=C(O)c1ccc(N(Cc2cc(C3CC3)cc(C3CC3)c2)C(=O)CN(Cc2ccc(F)cc2Cl)S(=O)(=O)c2c(F)c(F)c(F)c(F)c2F)c(N2CCOCC2)c1 [Compound 1241, 4-(2-(N-(2-chloro-4-fluorobenzyl)-(2,3,4,5,6-pentafluorophenyl)sulfon-amido)-N-(3,5-dicyclopropylbenzyl)acetamido)-3-morpholinobenzoic acid] | 0.001 to 10 | 247 to 554 | 0.01 to 316 |
| O=C(O)c1ccc(N(Cc2cc(C3CC3)cc(C3CC3)c2)C(=O)CN(CCc2ccc(F)cc2Cl)S(=O)(=O)c2c(F)c(F)c(F)c(F)c2F)c(OC2CC2)c1 [Compound 1242, 4-(2-(N-(2-chloro-4-fluorophenethyl)-(2,3,4,5,6-pentafluorophenyl)sulfon-amido)-N-(3,5-dicyclopropylbenzyl)acetamido)-3-cyclopropoxybenzoic acid] | 10 to 20 | 0.1 to 142 | 316 to 1000 |
| COCCOc1cc(C(=O)O)ccc1N(Cc1cc(C2CC2)cc(C(C)(C)C)c1)C(=O)CN(Cc1ccc(F)cc1Cl)S(=O)(=O)c1c(F)c(F)c(F)c(F)c1F [Compound 1246, 4-(N-(3-(tert-butyl)-5-cyclopropylbenzyl)-2-(N-(2-chloro-4-fluorobenzyl)-(2,3,4,5,6-pentafluorophenyl)sulfon-amido)acetamido)-3-(2-methoxyethoxy)benzoic acid] | 10 to 20 | 142 to 247 | 0.01 to 316 |
| Cc1cc(C(=O)O)ccc1N(Cc1cc(C2CC2)cc(C(C)(C)C)c1)C(=O)CN(Cc1cnccc1C(F)(F)F)S(=O)(=O)c1c(F)c(F)c(F)c(F)c1F [Compound 1251, 4-(N-(3-(tert-butyl)-5-cyclopropylbenzyl)-2-(N-((4-(trifluoromethyl)pyridin-3-yl)methyl)-(2,3,4,5,6-pentafluoro-phenyl)sulfonamido)acetamido)-3-methylbenzoic acid] | 0.001 to 10 | 0.1 to 142 | 0.01 to 316 |
| CCOc1cc(C(=O)O)ccc1N(Cc1cc(C2CC2)cc(C2CC2)c1)C(=O)CN(Cc1ccc(F)cc1Cl)S(=O)(=O)c1c(F)c(F)c(F)c(F)c1F [Compound 1252, 4-(2-(N-(2-chloro-4-fluorobenzyl)-(2,3,4,5,6-pentafluorophenyl)sulfon-amido)-N-(3,5-dicyclopropylbenzyl)acetamido)-3-ethoxybenzoic acid] | 0.001 to 10 | 142 to 247 | 0.01 to 316 |
| CCCCOc1cc(C(=O)O)ccc1N(Cc1cc(C2CC2)cc(C2CC2)c1)C(=O)CN(Cc1ccc(F)cc1Cl)S(=O)(=O)c1c(F)c(F)c(F)c(F)c1F [Compound 1254, 3-butoxy-4-(2-(N-(2-chloro-4-fluorobenzyl)-(2,3,4,5,6-pentafluorophenyl)sulfon-amido)-N-(3,5-dicyclopropylbenzyl)acetamido)benzoic acid] | 20 to 30 | 554 to 100000 | 0.01 to 316 |
| C#CCOc1cc(C(=O)O)ccc1N(Cc1cc(C2CC2)cc(C2CC2)c1)C(=O)CN(Cc1ccc(F)cc1Cl)S(=O)(=O)c1c(F)c(F)c(F)c(F)c1F [Compound 1258, 4-(2-(N-(2-chloro-4-fluorobenzyl)-(2,3,4,5,6-pentafluorophenyl)sulfon-amido)-N-(3,5-dicyclopropylbenzyl)acetamido)-3-(prop-2-yn-1-yloxy)benzoic acid] | 10 to 20 | 0.1 to 142 | 0.01 to 316 |
